Where a name gives a salt, the structure may show the parent alone. Read-outs that look alike come from different tables or passages of the source.
Tests used:
[1] = system: Salmonella typhimurium NCTC 74; assay: Agar plate multi-point inoculation, colour; format: cell-based
[2] = system: Escherichia coli NCTC 10418; assay: Agar plate multi-point inoculation, colour; format: cell-based
[3] = system: Burkholderia cepacia 1222; assay: Agar plate multi-point inoculation, colour; format: cell-based; settings: Columbia agar, FAC 500 mg/L, substrate 300 mg/L, 37° C. 18 h in air
[4] = system: Steptococcus pyogenes NCTC 8306; assay: Agar plate multi-point inoculation, colour; format: cell-based
[5] = system: Providencia rettgeri NCTC 7475; assay: Agar plate multi-point inoculation, colour; format: cell-based
[6] = system: Yersinia enterocolitica NCTC 11176; assay: Agar plate multi-point inoculation, colour; format: cell-based; settings: Columbia agar, FAC 500 mg/L, substrate 300 mg/L, 37° C. 18 h in air
[7] = system: Staphylococcus aureus NCTC 6571; assay: Agar plate multi-point inoculation, colour; format: cell-based
[8] = system: Candida glabrata NCPF 3943; assay: Agar plate multi-point inoculation, colour; format: cell-based
[9] = system: Staphylococcus aureus (MRSA) NCTC 11939; assay: Agar plate multi-point inoculation, colour; format: cell-based; settings: for Colour: Columbia agar, FAC 500 mg/L, substrate 300 mg/L, 37° C. 18 h in air
[10] = system: Staphylococcus epidermidis NCTC 11047; assay: Agar plate multi-point inoculation, colour; format: cell-based
[11] = system: Enterococcus faecalis NCTC 775; assay: Agar plate multi-point inoculation, colour; format: cell-based
[12] = system: Enterococcus faecium NCTC 7171; assay: Agar plate multi-point inoculation, colour; format: cell-based
[13] = system: Serratia marcescens NCTC 10211; assay: Agar plate multi-point inoculation, colour; format: cell-based
[14] = system: Enterobacter cloacae NCTC 11936; assay: Agar plate multi-point inoculation, colour; format: cell-based
[15] = system: Pseudomonas aeruginosa NCTC 10662; assay: Agar plate multi-point inoculation, colour; format: cell-based
[16] = system: Morganella morganii 462403 (wild); assay: Agar plate multi-point inoculation, colour; format: cell-based; settings: Columbia agar, FAC 500 mg/L, substrate 300 mg/L, 37° C. 18 h in air
[17] = system: Bacillus subtilis NCTC 9372; assay: Agar plate multi-point inoculation, colour; format: cell-based
[18] = system: Listeria monocytogenes NCTC 11994; assay: Agar plate multi-point inoculation, colour; format: cell-based
[19] = system: Citrobacter freundii NCTC 9750 or 46262; assay: Agar plate multi-point inoculation, colour; format: cell-based; settings: Columbia agar, FAC 500 mg/L, substrate 300 mg/L, 37° C. 18 h in air
[20] = system: Candida albicans ATCC 90028; format: cell-based; settings: Columbia agar, FAC 500 mg/L, substrate 300 mg/L, 37° C. 18 h in air
[21] = system: Klebsiella pneumoniae NCTC 9528; assay: Agar plate multi-point inoculation, colour; format: cell-based
[22] = system: Acinetobacter baumannii NCTC 19606; assay: Agar plate multi-point inoculation, colour; format: cell-based
[23] = system: Burkholderia cepacia NCTC 10931; assay: Agar plate multi-point inoculation, colour; format: cell-based; settings: Columbia agar, FAC 500 mg/L, substrate 300 mg/L, 37° C. 18 h in air
range of microorganisms = assay: Agar plate evaluation with a range of microorganisms (hue, diffusion, background); format: cell-based; settings: agar plates with FAC
[24] = Columbia agar, FAC 500 mg/L, substrate 300 mg/L, 37° C. 18 h in air

Row | Compound | melting point | Colour [1, 24] | Colour [2, 24] | Colour [3] | Colour [4, 24] | Colour [5, 24] | Colour [6] | Colour [7, 24] | Colour [8, 24] | Colour [9] | Colour [10, 24] | Colour [11, 24] | Colour [12, 24] | Colour [13, 24] | Colour [14, 24] | Colour [15, 24] | Colour [16] | Colour [17, 24] | Colour [18, 24] | Colour [20] | further results
1 | O=C(O)C1OC(Oc2cc3ccccc3cc2O)C(O)C(O)C1O (as salt: salt) [Compound 12a, DHN-β-D-glucuronide CHA Salt] | 223 to 224 °C |  |  |  |  |  |  |  |  |  |  |  |  |  |  |  |  |  |  |  | 
2 | O=C(O)C1OC(Oc2cc3cc(Br)c(Br)cc3cc2O)C(O)C(O)C1O (as salt: salt) [Compound 29, 6,7-Dibromo-DHN-β-D-glucuronide CHA Salt] | 221 to 224 °C |  |  |  |  |  |  |  |  |  |  |  |  |  |  |  |  |  |  |  | 
3 | OC[C@H]1O[C@@H](Oc2cc3ccccc3cc2O)C(O)C1O (stereo partly drawn) [Compound 2, DHN-β-D-ribofuranoside] | 181 to 182 °C | ++ | ++ | − | − | ++ | − | + | − | + | − | − | − | ++ | ++ | − | ++ | − | − | − | hydrolysis of substrate ([7]; agar plates with FAC): able to hydrolyse; hydrolysis of substrate ([9]; agar plates with FAC): able to hydrolyse; hydrolysis of substrate ([10]; agar plates with FAC): unaffected; Colour [19]: ++
4 | OCC1OC(Oc2cc3ccccc3cc2O)C(O)C(O)C1O [Compound 4, DHN-β-D-glucopyranoside] | > 210 °C (dec.) | − | Tr. |  | − | ++ | − | − | − | − | − | + | + | ++ | + | − |  | + | + | − | Colour [21, 24]: ++; Colour [22, 24]: −; Colour [23]: −
5 | OCC1OC(Oc2cc3ccccc3cc2O)C(O)C(O)C1O [Compound 6, DHN-α-D-glucopyranoside] | 164 to 166 °C | − | + | − | ++ | − | Tr. | +/− | − | +/− | + | ++ | Tr. | ++ | ++ | − | − | ++ | ++ | − | Colour [19]: −
6 | OCC1OC(Oc2cc3ccccc3cc2O)C(O)C(O)C1O [Compound 10, DHN-α-D-galactopyranoside] |  | − | Tr. | − | − | − | − | − | − | − | − | − | − | − | Tr. | − | − | − | − | − | Colour [19]: −
7 | O=C([O-])C1OC(Oc2cc3ccccc3cc2O)C(O)C(O)C1O.[Na+] [Compound 12b, DHN-β-D-glucuronide Sodium Salt] | 53 to 55 °C | − | ++ | − | − | − | − | − | − | − | − | − | − | − | − | − | − | − | − | − | hydrolysis of substrate (judged by colour) ([2]; agar plates containing FAC): strong colour; Colour [19]: −
8 | CC(=O)NC1C(Oc2cc3ccccc3cc2O)OC(CO)C(O)C1O [Compound 15, DHN-N-acetyl-β-D-glucosaminide] | 204 to 205 °C | − | − | − | ++ | − | + | − | − | − | − | ++ | ++ | ++ | +/− | − | − | − | ++ | − | Colour [19]: −
9 | CCCCCCCC(=O)Oc1cc2ccccc2cc1OC(=O)CCCCCCC [Compound 16, DHN-dicaprylate] |  | − | − |  | − | + | − | − | − | − | − | − | − | + | − | + |  | − | − | − | Colour [21, 24]: −; Colour [22, 24]: +; Colour [23]: −
10 | O=P([O-])([O-])Oc1cc2ccccc2cc1O.[Na+].[Na+] [Compound 17, DHN-phosphate Disodium Salt] |  |  |  |  |  |  | +/− |  |  | + |  |  |  |  |  |  |  |  |  | − | Colour [1]: ++; Colour [2]: +/−; Colour [4]: −; Colour [5]: +; Colour [7]: +; Colour [8]: −; Colour [10]: −; Colour [21]: ++; Colour [11]: −; Colour [12]: −; Colour [13]: ++; Colour [14]: +/−; Colour [15]: −; Colour [22]: −; Colour [17]: −; Colour [18]: +; Colour [23]: +/−
11 | O=[N+]([O-])c1c(O)c(O[C@@H]2O[C@H](CO)C(O)C2O)cc2ccccc12 (stereo partly drawn) [Compound 19, 1-Nitro-DHN-β-D-ribofuranoside] | > 170 °C (dec.) |  |  |  |  |  |  |  |  |  |  |  |  |  |  |  |  |  |  |  | colour (hue) after hydrolysis (range of microorganisms): more distinctly red
12 | OCC1OC(Oc2cc3cc(Br)c(Br)cc3cc2O)C(O)C(O)C1O [Compound 25, 6,7-Dibromo-DHN-β-D-galactopyranoside] | 256 to 257 °C | − | ++ | +/− | − | − | − | − | − | − | − | Tr. | +/− | + | − | − | − | − | +/− | − | Colour [19]: +
13 | OCC1OC(Oc2cc3cc(Br)c(Br)cc3cc2O)C(O)C(O)C1O [Compound 27, 6,7-Dibromo-DHN-β-D-glucopyranoside] |  | − | Tr. | + | − | ++ | − | Tr. | − | Tr. | − | Tr. | +/− | ++ | − | − | − | + | +/− | − | Colour [19]: +
14 | O=C(O)C1OC(Oc2cc3cc(Br)c(Br)cc3cc2O)C(O)C(O)C1O [Compound 29, 6,7-Dibromo-DHN-β-D-glucuronide CHA Salt] |  |  |  | − |  |  | − |  |  | − |  |  |  |  |  |  | − |  |  | − | Colour [1]: −; Colour [2]: ++; Colour [4]: −; Colour [5]: −; Colour [7]: −; Colour [8]: −; Colour [10]: −; Colour [11]: −; Colour [12]: −; Colour [13]: −; Colour [14]: −; Colour [15]: −; Colour [17]: −; Colour [18]: −; Colour [19]: −

Source: patent publication US9938562B2, “Naphthalene derived chromogenic enzyme substrates” (Glycosynth Limited, priority 2013, dated 2018)
